Experimental data taken from PMC12434670 (Journal of Medicinal Chemistry, 2025).
Where two headings read alike, the source gives them in different places.

Tested on: Virg09 virus clones with HA mutations
Type: cell-based, influenza A virus
[1] = read-out: Antiviral EC50 by MTS assay, mutant A81/82_1V
[2] = read-out: Antiviral EC50 by MTS assay, mutant D90_2G
[3] = read-out: Antiviral EC50 by MTS assay, mutant F118_1L
[4] = read-out: Antiviral EC50 by MTS assay, mutant S54_2P
[5] = read-out: Antiviral EC50 by MTS assay, mutant T301_1I
[6] = read-out: EC50 against all virus clones selected under VF-57a or RL-007

SMILES | Activity against all viruses tested (in words) | EC50 [1] | EC50 [2] | EC50 [3] | EC50 [4] | EC50 [5] | EC50 [6]
O=C1c2c(O)c(=O)ccn2N([C@@H]2c3ccccc3SCc3c2ccc(F)c3F)[C@@H]2COCCN12 [BXA, baloxavir acid] | equally active | 0.003 ± 0.0007 µM | 0.0017 ± 0.0002 µM | 0.0025 ± 0.0005 µM | 0.0017 ± 0.0008 µM | 0.0019 ± 0.0001 µM | –
Cc1cc(CNC(=O)c2cc(Cl)cc(C(F)(F)F)c2)c(C)s1 [Compound 23, 3-Chloro-N-[(2,5-dimethylthiophen-3-yl)methyl]-5-(trifluoromethyl)benzamide] | – | > 40 µM | > 40 µM | > 40 µM | > 40 µM | > 40 µM | > 40 µM
CC(C)c1ccccc1NCCN1CCCCC1 [RL-007, reference compound] | – | > 40 µM | > 40 µM | > 40 µM | > 40 µM | > 40 µM | > 40 µM
